Test results taken from patent EP4722207A1, “OXOISOINDOLINYL-SUBSTITUTED TETRAHYDROPYRIMIDINEDIONE DERIVATIVE AND USE THEREOF” (Gluetacs Therapeutics (Shanghai) Co., Ltd., priority 2023, dated 2024).

What was measured:
Format in all cases: cell-based
WEE1 = target: T1, WEE1 (Homo sapiens, UniProt P30291+Q96SW2); experiment: Western-blot assay, substrate protein degradation in hPBMCs: WEE1; conditions: for WEE1 substrate protein remaining %: compounds at 50 nM and 500 nM, 24 hours; for substrate protein remaining % WEE1: 24 hours of compound treatment, 50 nM and 500 nM
T1 construct: effects of the compounds of the present disclosure on the expression of target proteins in cells; endogenous in cells; host or cells: human PBMCs (hPBMCs)

IKZF1 = target: T2, IKZF1 (Homo sapiens, UniProt Q13422+Q96SW2); experiment: Western-blot assay, substrate protein degradation in hPBMCs: IKZF1; conditions: for IKZF1 substrate protein remaining %: compounds at 50 nM and 500 nM, 24 hours; for substrate protein remaining % IKZF1: 24 hours of compound treatment, 50 nM and 500 nM
T2 construct: effects of the compounds of the present disclosure on the expression of target proteins in cells; endogenous in cells; host or cells: human PBMCs (hPBMCs)
T2 sequence (Q13422 whole entry): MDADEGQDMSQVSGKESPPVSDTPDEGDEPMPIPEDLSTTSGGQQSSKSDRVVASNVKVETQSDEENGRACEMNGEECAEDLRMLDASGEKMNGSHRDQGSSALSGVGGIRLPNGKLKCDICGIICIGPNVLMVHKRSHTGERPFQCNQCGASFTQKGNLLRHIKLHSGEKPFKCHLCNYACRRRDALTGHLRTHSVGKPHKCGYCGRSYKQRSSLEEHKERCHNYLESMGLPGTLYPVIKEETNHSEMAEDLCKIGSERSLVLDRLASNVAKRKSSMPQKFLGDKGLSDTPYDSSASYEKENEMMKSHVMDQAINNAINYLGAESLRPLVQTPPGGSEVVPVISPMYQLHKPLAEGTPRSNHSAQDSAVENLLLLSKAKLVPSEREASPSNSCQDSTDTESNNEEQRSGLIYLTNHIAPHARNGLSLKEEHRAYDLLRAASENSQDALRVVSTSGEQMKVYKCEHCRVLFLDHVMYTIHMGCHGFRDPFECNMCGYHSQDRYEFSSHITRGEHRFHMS
T2 sequence (Q96SW2 whole entry): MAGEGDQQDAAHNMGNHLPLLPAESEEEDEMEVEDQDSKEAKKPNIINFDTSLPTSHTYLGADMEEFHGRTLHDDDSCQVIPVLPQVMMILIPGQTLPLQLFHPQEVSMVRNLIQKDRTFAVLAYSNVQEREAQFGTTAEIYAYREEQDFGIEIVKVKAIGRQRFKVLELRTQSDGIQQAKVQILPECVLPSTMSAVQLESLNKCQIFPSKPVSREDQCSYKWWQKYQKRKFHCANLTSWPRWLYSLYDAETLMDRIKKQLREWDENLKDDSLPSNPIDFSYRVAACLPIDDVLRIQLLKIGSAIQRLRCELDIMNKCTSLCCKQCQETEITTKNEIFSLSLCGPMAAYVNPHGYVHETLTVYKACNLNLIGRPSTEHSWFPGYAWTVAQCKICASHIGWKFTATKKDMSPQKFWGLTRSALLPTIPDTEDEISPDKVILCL
T2 sequence (Q16531 whole entry partner): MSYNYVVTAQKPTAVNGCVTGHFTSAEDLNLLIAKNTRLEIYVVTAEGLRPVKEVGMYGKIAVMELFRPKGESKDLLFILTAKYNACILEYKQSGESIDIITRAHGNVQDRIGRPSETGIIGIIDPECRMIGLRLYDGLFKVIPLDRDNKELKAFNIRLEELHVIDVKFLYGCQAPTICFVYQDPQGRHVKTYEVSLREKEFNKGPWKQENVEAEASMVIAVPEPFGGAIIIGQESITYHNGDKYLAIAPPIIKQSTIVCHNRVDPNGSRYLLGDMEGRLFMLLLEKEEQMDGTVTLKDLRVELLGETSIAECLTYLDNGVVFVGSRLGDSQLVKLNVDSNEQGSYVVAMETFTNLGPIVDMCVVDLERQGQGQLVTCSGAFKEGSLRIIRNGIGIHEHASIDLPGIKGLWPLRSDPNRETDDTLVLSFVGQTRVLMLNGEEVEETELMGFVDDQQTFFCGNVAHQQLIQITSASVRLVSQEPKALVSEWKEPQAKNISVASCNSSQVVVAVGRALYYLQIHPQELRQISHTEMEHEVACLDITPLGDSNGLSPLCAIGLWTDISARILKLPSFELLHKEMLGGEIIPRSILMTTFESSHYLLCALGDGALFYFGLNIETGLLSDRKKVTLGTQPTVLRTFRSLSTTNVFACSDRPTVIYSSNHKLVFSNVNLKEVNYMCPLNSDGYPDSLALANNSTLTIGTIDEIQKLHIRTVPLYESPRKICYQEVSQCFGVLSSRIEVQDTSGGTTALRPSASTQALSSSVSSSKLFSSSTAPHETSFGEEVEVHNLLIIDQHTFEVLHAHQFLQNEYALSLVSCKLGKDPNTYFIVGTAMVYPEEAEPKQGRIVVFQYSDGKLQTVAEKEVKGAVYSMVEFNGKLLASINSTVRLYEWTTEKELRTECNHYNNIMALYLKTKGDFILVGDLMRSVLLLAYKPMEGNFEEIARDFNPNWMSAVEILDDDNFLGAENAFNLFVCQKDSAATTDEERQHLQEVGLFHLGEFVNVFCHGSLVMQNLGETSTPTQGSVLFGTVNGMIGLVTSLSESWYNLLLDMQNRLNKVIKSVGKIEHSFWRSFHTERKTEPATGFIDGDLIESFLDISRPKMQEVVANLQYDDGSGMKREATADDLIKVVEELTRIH

IKZF2 = target: T3, IKZF2 (Homo sapiens, UniProt Q96SW2+Q9UKS7); experiment: Western-blot assay, substrate protein degradation in hPBMCs: IKZF2; conditions: for IKZF2 substrate protein remaining %: compounds at 50 nM and 500 nM, 24 hours; for substrate protein remaining % IKZF2: 24 hours of compound treatment, 50 nM and 500 nM
T3 construct: effects of the compounds of the present disclosure on the expression of target proteins in cells; endogenous in cells; host or cells: human PBMCs (hPBMCs)
T3 sequence (Q9UKS7 whole entry): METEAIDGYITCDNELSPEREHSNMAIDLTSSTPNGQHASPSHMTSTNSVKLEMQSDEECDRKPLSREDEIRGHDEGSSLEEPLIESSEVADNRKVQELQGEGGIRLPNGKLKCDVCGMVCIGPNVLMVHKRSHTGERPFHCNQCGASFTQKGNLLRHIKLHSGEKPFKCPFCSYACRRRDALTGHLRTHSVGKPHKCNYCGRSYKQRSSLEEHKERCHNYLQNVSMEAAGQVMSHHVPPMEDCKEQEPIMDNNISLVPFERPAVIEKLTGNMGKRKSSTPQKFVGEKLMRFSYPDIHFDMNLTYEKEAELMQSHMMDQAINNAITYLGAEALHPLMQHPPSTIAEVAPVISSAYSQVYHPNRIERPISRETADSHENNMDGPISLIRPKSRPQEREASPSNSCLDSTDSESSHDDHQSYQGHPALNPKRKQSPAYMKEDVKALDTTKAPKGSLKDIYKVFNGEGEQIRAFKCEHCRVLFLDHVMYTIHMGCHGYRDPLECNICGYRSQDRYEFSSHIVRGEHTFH
T3 sequence (Q96SW2 whole entry): as the sequence (Q96SW2 whole entry) above
T3 sequence (Q16531 whole entry partner): as the sequence (Q16531 whole entry partner) above

IKZF3 = target: T4, IKZF3 (Homo sapiens, UniProt Q96SW2+Q9UKT9); experiment: Western-blot assay, substrate protein degradation in hPBMCs: IKZF3; conditions: for IKZF3 substrate protein remaining %: compounds at 50 nM and 500 nM, 24 hours; for substrate protein remaining % IKZF3: 24 hours of compound treatment, 50 nM and 500 nM
T4 construct: effects of the compounds of the present disclosure on the expression of target proteins in cells; endogenous in cells; host or cells: human PBMCs (hPBMCs)
T4 sequence (Q9UKT9 whole entry): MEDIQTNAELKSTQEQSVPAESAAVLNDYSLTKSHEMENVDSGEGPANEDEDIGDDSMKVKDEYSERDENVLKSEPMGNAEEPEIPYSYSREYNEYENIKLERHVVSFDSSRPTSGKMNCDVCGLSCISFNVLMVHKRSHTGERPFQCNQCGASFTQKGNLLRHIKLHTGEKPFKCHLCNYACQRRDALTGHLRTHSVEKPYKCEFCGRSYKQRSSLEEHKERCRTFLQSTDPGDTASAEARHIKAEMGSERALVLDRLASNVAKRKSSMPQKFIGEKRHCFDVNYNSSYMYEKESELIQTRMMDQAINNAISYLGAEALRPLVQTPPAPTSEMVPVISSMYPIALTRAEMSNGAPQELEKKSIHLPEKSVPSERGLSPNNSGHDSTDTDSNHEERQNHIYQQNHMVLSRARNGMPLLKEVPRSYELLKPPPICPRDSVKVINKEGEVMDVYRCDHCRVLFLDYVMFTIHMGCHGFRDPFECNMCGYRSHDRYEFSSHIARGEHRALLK
T4 sequence (Q96SW2 whole entry): as the sequence (Q96SW2 whole entry) above
T4 sequence (Q16531 whole entry partner): as the sequence (Q16531 whole entry partner) above

CK1α = target: T5, CK1α (Homo sapiens, UniProt P48729+Q96SW2); experiment: Western-blot assay, substrate protein degradation in hPBMCs: CK1α; conditions: for CK1α substrate protein remaining %: compounds at 50 nM and 500 nM, 24 hours; for substrate protein remaining % CK1α: 24 hours of compound treatment, 50 nM and 500 nM
T5 construct: effects of the compounds of the present disclosure on the expression of target proteins in cells; endogenous in cells; host or cells: human PBMCs (hPBMCs)
T5 sequence (P48729 whole entry): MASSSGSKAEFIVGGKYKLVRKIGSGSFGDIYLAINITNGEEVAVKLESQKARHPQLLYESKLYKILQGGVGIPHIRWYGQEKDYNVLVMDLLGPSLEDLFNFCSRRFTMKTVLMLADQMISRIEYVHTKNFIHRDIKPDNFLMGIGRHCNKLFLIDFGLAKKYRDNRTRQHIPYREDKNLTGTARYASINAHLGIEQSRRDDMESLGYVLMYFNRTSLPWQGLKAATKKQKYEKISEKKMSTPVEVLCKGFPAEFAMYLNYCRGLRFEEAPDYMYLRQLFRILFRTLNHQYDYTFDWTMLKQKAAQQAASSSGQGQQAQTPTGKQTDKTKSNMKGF
T5 sequence (Q96SW2 whole entry): as the sequence (Q96SW2 whole entry) above
T5 sequence (Q16531 whole entry partner): as the sequence (Q16531 whole entry partner) above

GSPT1 = target: T6, GSPT1 (Homo sapiens, UniProt P15170+Q96SW2); experiment: Western-blot assay, substrate protein degradation in hPBMCs: GSPT1; conditions: for GSPT1 substrate protein remaining %: compounds at 50 nM and 500 nM, 24 hours; for substrate protein remaining % GSPT1: 24 hours of compound treatment, 50 nM and 500 nM
T6 construct: effects of the compounds of the present disclosure on the expression of target proteins in cells; endogenous in cells; host or cells: human PBMCs (hPBMCs)
T6 sequence (P15170 whole entry): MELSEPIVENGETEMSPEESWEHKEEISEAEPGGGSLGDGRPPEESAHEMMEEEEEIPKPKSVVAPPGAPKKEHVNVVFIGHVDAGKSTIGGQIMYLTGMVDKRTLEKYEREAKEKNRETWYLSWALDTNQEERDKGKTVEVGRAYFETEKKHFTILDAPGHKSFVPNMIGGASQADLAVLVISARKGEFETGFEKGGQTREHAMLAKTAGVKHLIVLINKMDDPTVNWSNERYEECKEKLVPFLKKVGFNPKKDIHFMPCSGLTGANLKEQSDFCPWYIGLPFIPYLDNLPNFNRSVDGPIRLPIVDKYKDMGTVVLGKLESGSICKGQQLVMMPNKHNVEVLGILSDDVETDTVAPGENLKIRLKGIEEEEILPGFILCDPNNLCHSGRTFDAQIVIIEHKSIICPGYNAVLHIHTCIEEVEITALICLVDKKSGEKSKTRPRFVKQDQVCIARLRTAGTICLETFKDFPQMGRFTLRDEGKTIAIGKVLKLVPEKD
T6 sequence (Q96SW2 whole entry): as the sequence (Q96SW2 whole entry) above
T6 sequence (Q16531 whole entry partner): as the sequence (Q16531 whole entry partner) above

| Structure (SMILES) | WEE1 substrate protein remaining % (WEE1) | IKZF1 substrate protein remaining % (IKZF1) | IKZF2 substrate protein remaining % (IKZF2) | IKZF3 substrate protein remaining % (IKZF3) | CK1α substrate protein remaining % (CK1α) | GSPT1 substrate protein remaining % (GSPT1) | substrate protein remaining % WEE1 (WEE1) | substrate protein remaining % IKZF1 (IKZF1) | substrate protein remaining % IKZF2 (IKZF2) | substrate protein remaining % IKZF3 (IKZF3) | substrate protein remaining % CK1α (CK1α) | substrate protein remaining % GSPT1 (GSPT1) |
| --- | --- | --- | --- | --- | --- | --- | --- | --- | --- | --- | --- | --- |
| O=C1CCN(N2Cc3cc(CN4CCN(c5c(Cl)ccnc5Cl)CC4)ccc3C2=O)C(=O)N1 [GT-06974, 1-(5-((4-(2,4-dichloropyridin-3-yl)piperazin-1-yl)methyl)-1-oxoisoindolin-2-yl)dihydropyrimidine-2,4(1H,3H)-dione] | A ("A" is defined as 0% ≤ substrate protein remaining % ≤ 80%) | A ("A" is defined as 0% ≤ substrate protein remaining % ≤ 80%) | B ("B" is defined as 80%< substrate protein remaining %≤ 100%) | A ("A" is defined as 0% ≤ substrate protein remaining % ≤ 80%) | B ("B" is defined as 80%< substrate protein remaining %≤ 100%) | B ("B" is defined as 80%< substrate protein remaining %≤ 100%) | – | – | – | – | – | – |
| O=C1CCN(N2Cc3cc(CN4CC(c5ccnc6cc(F)ccc56)C4)ccc3C2=O)C(=O)N1 [GT-07711, 1-(5-((3-(7-fluoroquinolin-4-yl)azetidin-1-yl)methyl)-1-oxoisoindolin-2-yl)dihydropyrimidine-2,4(1H,3H)-dione] | – | – | – | – | – | – | B (80%< substrate protein remaining %≤ 100%) | A (0% ≤ substrate protein remaining % ≤ 80%) | A (0% ≤ substrate protein remaining % ≤ 80%) | A (0% ≤ substrate protein remaining % ≤ 80%) | A (0% ≤ substrate protein remaining % ≤ 80%) | A (0% ≤ substrate protein remaining % ≤ 80%) |
| O=C1CCN(N2Cc3cc(CN4CCC(c5ccnc(Cl)c5Cl)CC4)ccc3C2=O)C(=O)N1 [GT-06390, 1-(5-((4-(2,3-dichloropyridin-4-yl)piperidin-1-yl)methyl)-1-oxoisoindolin-2-yl)dihydropyrimidine-2,4(1H,3H)-dione] | B ("B" is defined as 80%< substrate protein remaining %≤ 100%) | B ("B" is defined as 80%< substrate protein remaining %≤ 100%) | B ("B" is defined as 80%< substrate protein remaining %≤ 100%) | B ("B" is defined as 80%< substrate protein remaining %≤ 100%) | B ("B" is defined as 80%< substrate protein remaining %≤ 100%) | A ("A" is defined as 0% ≤ substrate protein remaining % ≤ 80%) | – | – | – | – | – | – |
| O=C1CCN(N2C(=O)c3ccc(CN4CCC(c5cccc(C(F)(F)F)c5)CC4)cc3C2=O)C(=O)N1 [GT-06880, 2-(2,4-dioxotetrahydropyrimidin-1(2H)-yl)-5-((4-(3-(trifluoromethyl)phenyl)piperidin-1-yl)methyl)isoindoline-1,3-dione] | A ("A" is defined as 0% ≤ substrate protein remaining % ≤ 80%) | B ("B" is defined as 80%< substrate protein remaining %≤ 100%) | B ("B" is defined as 80%< substrate protein remaining %≤ 100%) | B ("B" is defined as 80%< substrate protein remaining %≤ 100%) | B ("B" is defined as 80%< substrate protein remaining %≤ 100%) | B ("B" is defined as 80%< substrate protein remaining %≤ 100%) | – | – | – | – | – | – |
| O=C1CCN(N2Cc3cc(CN4CCN(c5ncccc5F)CC4)ccc3C2=O)C(=O)N1 [GT-05129, 1-(5-((4-(3-fluoropyridin-2-yl)piperazin-1-yl)methyl)-1-oxoisoindolin-2-yl)dihydropyrimidine-2,4(1H,3H)-dione] | A ("A" is defined as 0% ≤ substrate protein remaining % ≤ 80%) | A ("A" is defined as 0% ≤ substrate protein remaining % ≤ 80%) | A ("A" is defined as 0% ≤ substrate protein remaining % ≤ 80%) | A ("A" is defined as 0% ≤ substrate protein remaining % ≤ 80%) | A ("A" is defined as 0% ≤ substrate protein remaining % ≤ 80%) | A ("A" is defined as 0% ≤ substrate protein remaining % ≤ 80%) | – | – | – | – | – | – |
| O=C1CCN(N2Cc3cc(CN4CCc5sccc5C4)ccc3C2=O)C(=O)N1 [GT-07720, 1-(5-((6,7-dihydrothieno[3,2-c]pyridin-5(4H)-yl)methyl)-1-oxoisoindolin-2-yl)dihydropyrimidine-2,4(1H,3H)-dione] | – | – | – | – | – | – | A (0% ≤ substrate protein remaining % ≤ 80%) | A (0% ≤ substrate protein remaining % ≤ 80%) | A (0% ≤ substrate protein remaining % ≤ 80%) | A (0% ≤ substrate protein remaining % ≤ 80%) | A (0% ≤ substrate protein remaining % ≤ 80%) | A (0% ≤ substrate protein remaining % ≤ 80%) |
| Cc1ccc(N2CCN(Cc3ccc4c(c3)CN(N3CCC(=O)NC3=O)C4=O)CC2)s1 [GT-05083, 1-(5-((4-(5-methylthiophen-2-yl)piperazin-1-yl)methyl)-1-oxoisoindolin-2-yl)dihydropyrimidine-2,4(1H,3H)-dione] | B ("B" is defined as 80%< substrate protein remaining %≤ 100%) | B ("B" is defined as 80%< substrate protein remaining %≤ 100%) | A ("A" is defined as 0% ≤ substrate protein remaining % ≤ 80%) | B ("B" is defined as 80%< substrate protein remaining %≤ 100%) | B ("B" is defined as 80%< substrate protein remaining %≤ 100%) | B ("B" is defined as 80%< substrate protein remaining %≤ 100%) | – | – | – | – | – | – |
| O=C1CCN(N2C(=O)c3ccc(CN4CC=C(c5ccco5)CC4)cc3C2=O)C(=O)N1 [GT-05317, 2-(2,4-dioxotetrahydropyrimidin-1(2H)-yl)-5-((4-(furan-2-yl)-3,6-dihydropyridin-1(2H)-yl)methyl)isoindoline-1,3-dione] | B ("B" is defined as 80%< substrate protein remaining %≤ 100%) | B ("B" is defined as 80%< substrate protein remaining %≤ 100%) | B ("B" is defined as 80%< substrate protein remaining %≤ 100%) | B ("B" is defined as 80%< substrate protein remaining %≤ 100%) | B ("B" is defined as 80%< substrate protein remaining %≤ 100%) | A ("A" is defined as 0% ≤ substrate protein remaining % ≤ 80%) | – | – | – | – | – | – |
| O=C1CCN(N2C(=O)c3ccc(CN4CCN(c5ccccc5)CC4)cc3C2=O)C(=O)N1 [GT-06719, 2-(2,4-dioxotetrahydropyrimidin-1(2H)-yl)-5-((4-phenylpiperazin-1-yl)methyl)isoindoline-1,3-dione] | B ("B" is defined as 80%< substrate protein remaining %≤ 100%) | B ("B" is defined as 80%< substrate protein remaining %≤ 100%) | B ("B" is defined as 80%< substrate protein remaining %≤ 100%) | A ("A" is defined as 0% ≤ substrate protein remaining % ≤ 80%) | B ("B" is defined as 80%< substrate protein remaining %≤ 100%) | B ("B" is defined as 80%< substrate protein remaining %≤ 100%) | – | – | – | – | – | – |
| O=C1CCN(N2Cc3cc(CN4CCN(c5ccc(Cl)c(Cl)c5)CC4)ccc3C2=O)C(=O)N1 [GT-06775, 1-(5-((4-(3,4-dichlorophenyl)piperazin-1-yl)methyl)-1-oxoisoindolin-2-yl)dihydropyrimidine-2,4(1H,3H)-dione] | B ("B" is defined as 80%< substrate protein remaining %≤ 100%) | B ("B" is defined as 80%< substrate protein remaining %≤ 100%) | A ("A" is defined as 0% ≤ substrate protein remaining % ≤ 80%) | A ("A" is defined as 0% ≤ substrate protein remaining % ≤ 80%) | A ("A" is defined as 0% ≤ substrate protein remaining % ≤ 80%) | A ("A" is defined as 0% ≤ substrate protein remaining % ≤ 80%) | – | – | – | – | – | – |
| O=C1CCN(N2C(=O)c3ccc(CN4CC=C(c5ccsc5)CC4)cc3C2=O)C(=O)N1 [GT-06435, 2-(2,4-dioxotetrahydropyrimidin-1(2H)-yl)-5-((4-(thiophen-3-yl)-3,6-dihydropyridin-1(2H)-yl)methyl)isoindoline-1,3-dione] | A ("A" is defined as 0% ≤ substrate protein remaining % ≤ 80%) | B ("B" is defined as 80%< substrate protein remaining %≤ 100%) | A ("A" is defined as 0% ≤ substrate protein remaining % ≤ 80%) | A ("A" is defined as 0% ≤ substrate protein remaining % ≤ 80%) | B ("B" is defined as 80%< substrate protein remaining %≤ 100%) | A ("A" is defined as 0% ≤ substrate protein remaining % ≤ 80%) | – | – | – | – | – | – |
